Results reported in patent US11952364B2, “TRK inhibitors useful as anticancer drugs” (TYLIGAND BIOSCIENCE (SHANGHAI) LIMITED, priority 2018, dated 2024).

What was measured:
RET = RET (Homo sapiens (Human), UniProt P07949); experiment: KINOMEscan competition binding assay
Method: (§1) The experiment was performed according to the standard kinase activity determination protocol by Eurofins DiscoverX Corporation (11180 Roselle St. Suite D, San Diego, CA, USA, www.discoverX.com). Specifically, the experiment was conducted using the KINOMEscan™ screening platform, which adopts an active site-directed competition binding assay to quantitatively measure the interaction between test compounds and more than hundreds of human kinases and disease-related mutants. The working principle of the screening platform and kinase assay methods are well known in the art, for example, see www.discoverX.com.

DDR1 = DDR1 (Homo sapiens (Human), UniProt Q08345); experiment: KINOMEscan competition binding assay
Method: as §1

EPHA8 = EPHA8 (Homo sapiens (Human), UniProt P29322); experiment: KINOMEscan competition binding assay
Method: as §1

AXL = AXL (Homo sapiens (Human), UniProt P30530); experiment: KINOMEscan competition binding assay
Method: as §1

RAF1 = RAF1 (Homo sapiens (Human), UniProt P04049); experiment: KINOMEscan competition binding assay
Method: as §1

TIE2 = TIE2 (Homo sapiens (Human), UniProt Q02763); experiment: KINOMEscan competition binding assay
Method: as §1

RET(M918T) = RET(M918T) (Homo sapiens (Human), UniProt P07949, M918T); experiment: KINOMEscan competition binding assay
Method: as §1

CDK7 = CDK7 (Homo sapiens (Human), UniProt P50613); experiment: KINOMEscan competition binding assay
Method: as §1

IKK-alpha = IKK-alpha (Homo sapiens (Human), UniProt O15111); experiment: KINOMEscan competition binding assay
Method: as §1

HIPK4 = HIPK4 (Homo sapiens (Human), UniProt Q8NE63); experiment: KINOMEscan competition binding assay
Method: as §1

TRKC = TRKC (Homo sapiens (Human), UniProt Q16288); experiment: KINOMEscan competition binding assay
Method: as §1

TRKA = TRKA (Homo sapiens (Human), UniProt P04629); experiment: KINOMEscan competition binding assay
Method: as §1

CSF1R = CSF1R (Homo sapiens (Human), UniProt P07333); experiment: KINOMEscan competition binding assay
Method: as §1

FLT3(D835V) = FLT3(D835V) (Homo sapiens (Human), UniProt P36888, D835V); experiment: KINOMEscan competition binding assay
Method: as §1

MET(Y1235D) = MET(Y1235D) (Homo sapiens (Human), UniProt P08581, Y1235D); experiment: KINOMEscan competition binding assay
Method: as §1

MUSK = MUSK (Homo sapiens (Human), UniProt O15146); experiment: KINOMEscan competition binding assay
Method: as §1

FLT3 = FLT3 (Homo sapiens (Human), UniProt P36888); experiment: KINOMEscan competition binding assay
Method: as §1

LOK = LOK (Homo sapiens (Human), UniProt O94804); experiment: KINOMEscan competition binding assay
Method: as §1

ROS1 = ROS1 (Homo sapiens (Human), UniProt P08922); experiment: KINOMEscan competition binding assay
Method: as §1

PDGFRB = PDGFRB (Homo sapiens (Human), UniProt P09619); experiment: KINOMEscan competition binding assay
Method: as §1

MET(M1250T) = MET(M1250T) (Homo sapiens (Human), UniProt P08581, M1250T); experiment: KINOMEscan competition binding assay
Method: as §1

KIT(V559D, T670I) = KIT(V559D, T670I) (Homo sapiens (Human), UniProt P10721, T670I/V559D); experiment: KINOMEscan competition binding assay
Method: as §1

FLT4 = FLT4 (Homo sapiens (Human), UniProt P35916); experiment: KINOMEscan competition binding assay
Method: as §1

FLT3(K663Q) = FLT3(K663Q) (Homo sapiens (Human), UniProt P36888, K663Q); experiment: KINOMEscan competition binding assay
Method: as §1

CDK11 = CDK11 (Homo sapiens (Human), UniProt Q9BWU1); experiment: KINOMEscan competition binding assay
Method: as §1

KIT(L576P) = KIT(L576P) (Homo sapiens (Human), UniProt P10721, L576P); experiment: KINOMEscan competition binding assay
Method: as §1

DDR2 = DDR2 (Homo sapiens (Human), UniProt Q16832); experiment: KINOMEscan competition binding assay
Method: as §1

KIT(V559D) = KIT(V559D) (Homo sapiens (Human), UniProt P10721, V559D); experiment: KINOMEscan competition binding assay
Method: as §1

KIT = KIT (Homo sapiens (Human), UniProt P10721); experiment: KINOMEscan competition binding assay
Method: as §1

MYO3B = MYO3B (Homo sapiens (Human), UniProt Q8WXR4); experiment: KINOMEscan competition binding assay
Method: as §1

EPHB6 = EPHB6 (Homo sapiens (Human), UniProt O15197); experiment: KINOMEscan competition binding assay
Method: as §1

[1] = molecular target: kinases listed in Table 10; experiment: KINOMEscan kinase panel (kinase profile); assay type: binding, human
Method: as §1
The experiment was performed according to the standard kinase activity determination protocol by Eurofins DiscoverX Corporation (11180 Roselle St. Suite D, San Diego, CA USA, www.discoverX.com).

Chain of CSF1R (P07333 20-972): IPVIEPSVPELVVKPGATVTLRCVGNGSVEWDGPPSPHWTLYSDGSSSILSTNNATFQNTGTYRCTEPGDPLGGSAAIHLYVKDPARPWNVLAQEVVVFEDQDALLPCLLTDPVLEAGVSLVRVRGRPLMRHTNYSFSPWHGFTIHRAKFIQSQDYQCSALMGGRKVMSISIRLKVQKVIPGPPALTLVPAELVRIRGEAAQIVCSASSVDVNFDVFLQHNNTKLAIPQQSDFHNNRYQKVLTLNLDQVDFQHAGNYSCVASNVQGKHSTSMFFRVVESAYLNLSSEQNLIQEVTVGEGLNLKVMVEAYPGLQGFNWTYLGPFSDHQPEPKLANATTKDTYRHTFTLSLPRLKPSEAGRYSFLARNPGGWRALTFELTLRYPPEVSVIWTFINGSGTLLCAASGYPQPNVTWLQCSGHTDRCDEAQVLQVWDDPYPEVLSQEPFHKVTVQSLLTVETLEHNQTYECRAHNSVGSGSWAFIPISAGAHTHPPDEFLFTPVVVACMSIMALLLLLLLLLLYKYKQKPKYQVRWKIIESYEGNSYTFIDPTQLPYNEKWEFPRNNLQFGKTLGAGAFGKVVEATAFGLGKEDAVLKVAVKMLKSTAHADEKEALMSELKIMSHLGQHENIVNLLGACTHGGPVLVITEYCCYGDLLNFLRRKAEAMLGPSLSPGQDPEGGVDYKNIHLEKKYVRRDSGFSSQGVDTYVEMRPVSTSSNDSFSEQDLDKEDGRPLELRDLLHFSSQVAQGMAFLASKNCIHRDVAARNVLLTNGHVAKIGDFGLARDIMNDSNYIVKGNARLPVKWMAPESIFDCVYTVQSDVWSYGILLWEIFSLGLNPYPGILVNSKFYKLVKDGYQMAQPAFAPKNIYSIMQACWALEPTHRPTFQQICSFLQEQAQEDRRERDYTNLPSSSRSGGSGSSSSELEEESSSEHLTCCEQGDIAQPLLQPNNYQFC
Chain of TRKA (P04629 33-796): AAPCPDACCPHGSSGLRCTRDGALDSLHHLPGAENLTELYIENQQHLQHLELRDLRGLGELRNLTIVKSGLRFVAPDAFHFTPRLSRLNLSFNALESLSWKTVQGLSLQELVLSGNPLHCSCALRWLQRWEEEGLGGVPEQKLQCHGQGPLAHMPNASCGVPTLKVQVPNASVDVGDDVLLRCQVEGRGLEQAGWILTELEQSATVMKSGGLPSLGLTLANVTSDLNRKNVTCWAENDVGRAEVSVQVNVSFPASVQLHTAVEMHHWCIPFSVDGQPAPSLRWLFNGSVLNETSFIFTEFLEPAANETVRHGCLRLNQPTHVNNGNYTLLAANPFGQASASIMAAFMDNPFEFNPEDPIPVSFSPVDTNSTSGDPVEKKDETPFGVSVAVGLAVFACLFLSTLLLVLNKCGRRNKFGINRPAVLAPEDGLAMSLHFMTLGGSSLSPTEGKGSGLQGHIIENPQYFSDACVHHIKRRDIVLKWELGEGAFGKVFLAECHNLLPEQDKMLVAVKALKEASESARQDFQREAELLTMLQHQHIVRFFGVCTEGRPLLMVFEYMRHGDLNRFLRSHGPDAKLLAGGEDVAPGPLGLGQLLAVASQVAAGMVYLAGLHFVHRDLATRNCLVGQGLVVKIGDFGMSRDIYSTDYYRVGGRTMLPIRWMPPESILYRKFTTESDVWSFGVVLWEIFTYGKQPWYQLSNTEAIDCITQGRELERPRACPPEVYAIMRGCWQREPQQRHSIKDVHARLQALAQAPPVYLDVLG
Chain of RET(M918T) (P07949 29-1114 M918T): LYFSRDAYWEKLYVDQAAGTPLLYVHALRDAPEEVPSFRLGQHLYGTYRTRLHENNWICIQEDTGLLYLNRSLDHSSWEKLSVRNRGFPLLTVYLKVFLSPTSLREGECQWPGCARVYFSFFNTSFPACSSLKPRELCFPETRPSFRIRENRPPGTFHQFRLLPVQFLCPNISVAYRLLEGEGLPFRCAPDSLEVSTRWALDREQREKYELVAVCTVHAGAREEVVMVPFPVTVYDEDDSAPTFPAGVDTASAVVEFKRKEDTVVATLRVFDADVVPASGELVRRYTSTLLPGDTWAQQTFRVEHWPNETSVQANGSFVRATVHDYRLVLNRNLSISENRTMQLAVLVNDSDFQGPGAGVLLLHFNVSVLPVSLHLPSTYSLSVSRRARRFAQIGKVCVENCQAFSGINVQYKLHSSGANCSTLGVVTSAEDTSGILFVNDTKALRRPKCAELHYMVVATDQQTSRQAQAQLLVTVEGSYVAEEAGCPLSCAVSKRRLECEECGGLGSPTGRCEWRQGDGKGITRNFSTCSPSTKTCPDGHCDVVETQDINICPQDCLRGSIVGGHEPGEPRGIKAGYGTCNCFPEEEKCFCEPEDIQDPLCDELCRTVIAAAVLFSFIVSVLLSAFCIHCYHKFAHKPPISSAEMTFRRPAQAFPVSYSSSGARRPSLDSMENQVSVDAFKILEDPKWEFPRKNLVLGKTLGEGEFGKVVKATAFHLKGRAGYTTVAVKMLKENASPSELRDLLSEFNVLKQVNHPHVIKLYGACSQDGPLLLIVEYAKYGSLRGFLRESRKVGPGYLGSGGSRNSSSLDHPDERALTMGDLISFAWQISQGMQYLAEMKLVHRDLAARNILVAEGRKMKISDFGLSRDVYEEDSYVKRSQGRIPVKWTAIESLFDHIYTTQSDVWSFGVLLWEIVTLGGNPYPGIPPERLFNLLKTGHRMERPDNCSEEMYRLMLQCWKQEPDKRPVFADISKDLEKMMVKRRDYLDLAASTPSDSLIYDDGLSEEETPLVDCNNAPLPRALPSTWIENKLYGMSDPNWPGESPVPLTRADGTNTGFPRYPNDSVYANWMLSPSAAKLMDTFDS
Chain of KIT(V559D, T670I) (P10721 26-976 V559D/T670I): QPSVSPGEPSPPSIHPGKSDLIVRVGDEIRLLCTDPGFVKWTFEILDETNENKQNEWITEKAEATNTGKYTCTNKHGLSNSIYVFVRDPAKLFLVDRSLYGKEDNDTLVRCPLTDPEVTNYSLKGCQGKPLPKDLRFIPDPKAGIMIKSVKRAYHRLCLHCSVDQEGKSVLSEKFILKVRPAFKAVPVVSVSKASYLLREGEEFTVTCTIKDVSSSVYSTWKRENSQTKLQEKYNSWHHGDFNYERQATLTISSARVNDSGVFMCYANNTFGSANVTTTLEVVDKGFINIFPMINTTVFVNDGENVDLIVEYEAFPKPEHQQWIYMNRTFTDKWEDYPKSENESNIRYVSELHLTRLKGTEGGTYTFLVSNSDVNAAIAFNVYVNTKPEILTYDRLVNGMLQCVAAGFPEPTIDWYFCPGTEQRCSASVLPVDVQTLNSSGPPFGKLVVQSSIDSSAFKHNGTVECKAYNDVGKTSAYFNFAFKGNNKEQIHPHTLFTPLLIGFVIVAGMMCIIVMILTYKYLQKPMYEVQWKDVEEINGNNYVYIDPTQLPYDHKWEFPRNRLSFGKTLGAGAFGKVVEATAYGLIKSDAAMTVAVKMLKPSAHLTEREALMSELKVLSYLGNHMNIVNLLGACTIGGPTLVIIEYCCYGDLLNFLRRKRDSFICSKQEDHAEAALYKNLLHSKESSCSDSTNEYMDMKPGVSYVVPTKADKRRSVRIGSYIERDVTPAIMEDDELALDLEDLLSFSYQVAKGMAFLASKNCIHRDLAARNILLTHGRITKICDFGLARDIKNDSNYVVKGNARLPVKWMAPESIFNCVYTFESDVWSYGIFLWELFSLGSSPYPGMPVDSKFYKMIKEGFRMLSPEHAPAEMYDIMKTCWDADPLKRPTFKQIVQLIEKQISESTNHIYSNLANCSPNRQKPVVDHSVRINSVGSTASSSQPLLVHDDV
Chain of DDR1 (Q08345 19-913): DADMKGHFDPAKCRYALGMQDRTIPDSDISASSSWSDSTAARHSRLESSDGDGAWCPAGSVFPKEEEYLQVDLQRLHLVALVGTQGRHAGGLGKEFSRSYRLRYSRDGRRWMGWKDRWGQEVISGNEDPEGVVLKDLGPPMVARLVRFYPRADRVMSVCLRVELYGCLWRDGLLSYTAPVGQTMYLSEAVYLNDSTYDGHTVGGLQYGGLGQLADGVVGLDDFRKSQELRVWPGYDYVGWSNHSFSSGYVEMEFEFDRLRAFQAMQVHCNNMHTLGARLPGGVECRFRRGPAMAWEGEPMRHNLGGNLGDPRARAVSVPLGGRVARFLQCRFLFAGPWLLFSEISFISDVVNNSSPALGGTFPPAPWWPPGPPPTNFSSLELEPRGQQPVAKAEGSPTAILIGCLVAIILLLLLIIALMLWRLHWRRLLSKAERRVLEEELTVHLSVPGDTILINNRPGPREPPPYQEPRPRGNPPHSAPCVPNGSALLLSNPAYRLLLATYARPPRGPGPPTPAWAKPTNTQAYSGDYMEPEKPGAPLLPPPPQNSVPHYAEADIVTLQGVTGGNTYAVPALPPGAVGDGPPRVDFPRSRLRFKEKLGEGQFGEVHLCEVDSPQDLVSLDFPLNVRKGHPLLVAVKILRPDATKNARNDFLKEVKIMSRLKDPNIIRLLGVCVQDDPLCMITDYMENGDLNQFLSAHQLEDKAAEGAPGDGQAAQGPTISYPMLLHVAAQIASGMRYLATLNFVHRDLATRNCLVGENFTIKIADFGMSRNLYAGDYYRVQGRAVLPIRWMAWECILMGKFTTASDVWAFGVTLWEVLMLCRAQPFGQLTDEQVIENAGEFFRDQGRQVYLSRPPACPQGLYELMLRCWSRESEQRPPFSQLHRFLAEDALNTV
Chain of KIT (P10721 26-976): as the sequence (P10721 26-976 V559D/T670I) above, with D534V, I645T counted along it
Chain of CDK7 (P50613 whole entry): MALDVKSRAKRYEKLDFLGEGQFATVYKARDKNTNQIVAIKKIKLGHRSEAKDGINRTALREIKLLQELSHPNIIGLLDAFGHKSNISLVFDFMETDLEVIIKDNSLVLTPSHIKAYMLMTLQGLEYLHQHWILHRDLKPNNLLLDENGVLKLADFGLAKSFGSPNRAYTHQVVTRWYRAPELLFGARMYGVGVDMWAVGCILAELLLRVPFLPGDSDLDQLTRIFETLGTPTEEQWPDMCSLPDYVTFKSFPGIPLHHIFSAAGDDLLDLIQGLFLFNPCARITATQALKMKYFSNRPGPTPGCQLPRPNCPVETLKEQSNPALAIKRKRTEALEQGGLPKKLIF
Chain of RET (P07949 29-1114): as the sequence (P07949 29-1114 M918T) above, with T890M counted along it

## COc1ccc(C(=O)Nc2ccc(Oc3cc4cnn(C)c4cc3-c3cn[nH]c3)c(F)c2)c(=O)n1-c1ccc(F)cc1 [Example 12, N-(3-fluoro-4-(1-methyl-6-(1H-pyrazol-4-yl)-1H-indazol-5-yloxy)phenyl)-1-(4-fluorophenyl)-6-methoxy-2-oxo-1,2-dihydropyridine-3-carboxamide]
RET
  inhibition at 2 µM: 97%
DDR1
  inhibition at 2 µM: 100%
EPHA8
  inhibition at 2 µM: 96%
AXL
  inhibition at 2 µM: 100%
RAF1
  inhibition at 2 µM: 92%
TIE2
  inhibition at 2 µM: 99%
RET(M918T)
  inhibition at 2 µM: 95%
CDK7
  inhibition at 2 µM: 96%
IKK-alpha
  inhibition at 2 µM: 97%
HIPK4
  inhibition at 2 µM: 97%
TRKC
  inhibition at 2 µM: 97%
TRKA
  inhibition at 2 µM: 100%
CSF1R
  inhibition at 2 µM: 100%
FLT3(D835V)
  inhibition at 2 µM: 93%
MET(Y1235D)
  inhibition at 2 µM: 99%
MUSK
  inhibition at 2 µM: 98%
FLT3
  inhibition at 2 µM: 99%
LOK
  inhibition at 2 µM: 100%
ROS1
  inhibition at 2 µM: 97%
PDGFRB
  inhibition at 2 µM: 98%
MET(M1250T)
  inhibition at 2 µM: 99%
KIT(V559D, T670I)
  inhibition at 2 µM: 99%
FLT4
  inhibition at 2 µM: 92%
FLT3(K663Q)
  inhibition at 2 µM: 93%
CDK11
  inhibition at 2 µM: 100%
KIT(L576P)
  inhibition at 2 µM: 100%
DDR2
  inhibition at 2 µM: 100%
KIT(V559D)
  inhibition at 2 µM: 100%
KIT
  inhibition at 2 µM: 100%
MYO3B
  inhibition at 2 µM: 100%
EPHB6
  inhibition at 2 µM: 95%
[1]; 2 μM, FIG. 2, kinases with a difference of inhibition rate >20%
  kinase activity profile compared with Merestinib: significantly different trend in the kinase activity profile
[1]; concentration of 2 μM
  inhibitory activity on the kinases listed in Table 10: > 90%
